The target of test [1] is T1, human ALK2 R206H (Homo sapiens, UniProt Q04771, R206H).
T1 construct: expressed in transfected cells; host or cells: HEK293 (ATCC CRL1573), lentivirus transduction, blasticidin selection
T1 sequence (Q04771 21-509 R206H): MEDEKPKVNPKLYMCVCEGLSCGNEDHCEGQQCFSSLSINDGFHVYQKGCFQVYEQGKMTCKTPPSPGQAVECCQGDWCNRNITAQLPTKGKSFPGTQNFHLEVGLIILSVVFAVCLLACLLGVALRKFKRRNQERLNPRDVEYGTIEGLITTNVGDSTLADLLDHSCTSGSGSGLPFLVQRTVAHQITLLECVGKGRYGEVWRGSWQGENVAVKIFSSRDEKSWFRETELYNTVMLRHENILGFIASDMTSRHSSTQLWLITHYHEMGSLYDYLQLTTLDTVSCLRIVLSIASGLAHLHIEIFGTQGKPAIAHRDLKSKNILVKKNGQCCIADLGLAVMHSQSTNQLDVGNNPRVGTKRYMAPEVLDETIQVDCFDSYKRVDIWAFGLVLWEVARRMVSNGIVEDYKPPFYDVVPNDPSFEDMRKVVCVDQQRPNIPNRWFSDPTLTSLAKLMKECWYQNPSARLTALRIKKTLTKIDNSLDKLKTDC
As to the kind of experiment: Cell-based ALK2-R206H cell activity assay (Smad1-Ser463/Ser465 phosphorylation by AlphaLISA in HEK293-ALK2-R206H cells). To be noted: phospho-Smad1 AlphaLISA, read-out: Cell Line (Cell Assay, IC50 class). The gist of the method: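 IC50 comes from a 10-point curve, scaled between DMSO and 1 μM LDN193189 controls, of lysate phospho-Smad1 (Ser463/465) measured by AlphaLISA. Compounds (top 10 μM or 1 μM, 3-fold steps, duplicates) were given 2-3 h to serum-starved HEK293 cells that stably express FLAG-tagged human ALK2 R206H.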

Test [2] deals with T2, ALK2R206H (mutant ALK2, N-terminally tagged with GST) (Homo sapiens, UniProt Q04771, R206H).
T2 construct: purchased Carna Bioscience or ThermoFisher 09-148 or PV6232
T2 sequence (Q04771 21-509 R206H): T1 sequence (Q04771 21-509 R206H)
Description: ALK binding assay (LANTHASCREEN TR-FRET competitive binding, displacement of Kinase Tracer 178). To be noted: read-out: Binding Assay (IC50 class). In outline: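 Competitive displacement of Kinase Tracer 178 (50 nM) from N-terminally GST-tagged mutant ALK2 R206H (2-5 nM) by compound, detected by TR-FRET with Eu-anti-GST antibody (4-10 nM). 30 min room temperature incubation, 1% DMSO final; normalized signal fitted to 4-parameter log dose response for IC50.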

Bounds are passed on as bounds.

With `CCOC(=O)N1CCN(c2ccnc3[nH]c(-c4ccc(C(C)(C)C#N)cn4)cc23)CC1` [Compound 282], the half-maximal inhibitory concentration (IC50) (as a rule, the concentration that inhibits the measured activity by half) was ≤ 100 nM in test [1] and ≤ 10 nM in test [2].
Consider `O=C(OC1COC1)N1CCN(c2ccnc3[nH]c(-c4nc(C5CC5)cs4)cc23)CC1` [Compound 313], for which the results for the IC50 in test [1] and in test [2] were 100 to 500 nM and ≤ 10 nM, respectively.
Regarding `Cc1nc(-c2[nH]c3nccc(N4CCN(C(=O)OCC(F)F)CC4)c3c2C#N)cn1C` [Compound 321], the IC50 in test [1] was ≤ 100 nM; in test [2] it was ≤ 10 nM.
For `Cn1cc(-c2cc3c(N4CCN(C(=O)C5CCOCC5)CC4)ccnc3[nH]2)cn1` [Compound 144] the same measures were > 500 nM and ≤ 10 nM.
Consider `Cn1cc(-c2cc3c(N4CCN(C(=O)OC5COC5)CC4)ccnc3[nH]2)cn1` [Compound 90], for which the IC50 in test [1] is ≤ 100 nM; in test [2], ≤ 10 nM.
In the case of `N#Cc1cnc(-c2cc3c(N4CCN(C(=O)OC5COC5)CC4)ccnc3[nH]2)nc1` [Compound 198], the figures for the IC50 in test [1] and in test [2] were 100 to 500 nM and ≤ 10 nM, respectively.
With `Cc1nc(-c2[nH]c3nccc(N4CCN(C(=O)OCC(F)F)CC4)c3c2C#N)cs1` [Compound 337], the IC50 in test [1] is ≤ 100 nM; in test [2], ≤ 10 nM.
On the same counts, the results for `O=C(C1CC1)N1CCN(c2ccnc3[nH]c(-c4ccc(C5(O)CCOCC5)cc4)cc23)CC1` [Compound 386] are ≤ 100 nM and ≤ 10 nM.
On to `O=C(C1CC1)N1CCN(c2ccnc3[nH]c(-c4ccc(N5CCOCC5)cc4)cc23)CC1` [Compound 335], for which the figures for the IC50 in test [1] and in test [2] were ≤ 100 nM and ≤ 10 nM, respectively.
For `Cn1cc(-c2cc3c(N4CCN(C(=O)C5CC5)CC4)ccnc3[nH]2)cn1` [Compound 6] the same measures were 100 to 500 nM and ≤ 10 nM.
On to `O=C(C1CC1)N1CCN(c2ccnc3[nH]c(-c4ccc(OC5CCC5)cc4)cc23)CC1` [Compound 273], for which the IC50 is 100 to 500 nM in test [1] and ≤ 10 nM in test [2].
As for `Cn1cc(-c2[nH]c3nccc(N4CCN(C(=O)[C@H]5C[C@@H]5C#N)CC4)c3c2Cl)cn1` [Compound 228], the IC50 is ≤ 100 nM in test [1] and ≤ 10 nM in test [2].
For `CC(C)(C#N)c1ccc(-c2cc3c(N4CCN(C(=O)C5CC5)CC4)ccnc3[nH]2)cc1` [Compound 252] the same measures were ≤ 100 nM and ≤ 10 nM.
For `Cn1cnc(-c2cc3c(N4CCN(C(=O)OC5CC5)CC4)ccnc3[nH]2)c1` [Compound 29] the same measures were ≤ 100 nM and ≤ 10 nM.
For `CC#Cc1c(-c2cnn(C)c2)[nH]c2nccc(N3CCN(C(=O)OCC)CC3)c12` [Compound 132], the figures for the IC50 in test [1] and in test [2] were ≤ 100 nM and ≤ 10 nM, respectively.
For `Cn1cnc(-c2[nH]c3nccc(N4CCN(C(=O)O[C@H]5C[C@@H](F)C5)CC4)c3c2C#N)c1` [Compound 296] the same measures were ≤ 100 nM and ≤ 10 nM.
Turning to `CCC(C)C(=O)N1CCN(c2ccnc3[nH]c(-c4cnn(C)c4)cc23)CC1` (stereo not drawn) [Compound 33], the IC50 in test [1] lay in the range of 100 to 500 nM; in test [2] it was 10 to 50 nM.
On the same counts, the results for `O=C(OC1COC1)N1CCN(c2ccnc3[nH]c(-c4ccc([C@]5(O)CCOC5)cc4)cc23)CC1` [Compound 429] are ≤ 100 nM and ≤ 10 nM.
For `Cn1cc(-c2cc3c(N4CCN(C(=O)O[C@H]5CCC5(F)F)CC4)ccnc3[nH]2)cn1` [Compound 268] the same measures were ≤ 100 nM and ≤ 10 nM.
For `O=C(C1CC1)N1CCN(c2ccnc3[nH]c(-c4ncco4)cc23)CC1` [Compound 1], the IC50 in test [1] is > 500 nM; in test [2] it was 10 to 50 nM.
On the same counts, the results for `Cn1cnc(-c2[nH]c3nccc(N4CCN(C(=O)OC5CC(F)(F)C5)CC4)c3c2C#N)c1` [Compound 370] are ≤ 100 nM and ≤ 10 nM.
For `Cn1cc(-c2cc3c(N4CCN(C(=O)[C@H]5C[C@H](C#N)C5)CC4)ccnc3[nH]2)cn1` [Compound 123] the same measures were 100 to 500 nM and ≤ 10 nM.
On the same counts, the results for `CN(C)C(=O)COc1ccc(-c2cc3c(N4CCN(C(=O)C5CC5)CC4)ccnc3[nH]2)cc1` [Compound 388] are 100 to 500 nM and ≤ 10 nM.
Turning to `CCC(C)OC(=O)N1CCN(c2ccnc3[nH]c(-c4cnn(C)c4)cc23)CC1` (stereo not drawn) [Compound 98], the half-inhibitory concentration (IC50) was 100 to 500 nM in test [1] and ≤ 10 nM in test [2].
For `Cn1ccc(-c2cc3c(N4CCN(C(=O)OC5COC5)CC4)ccnc3[nH]2)n1` [Compound 91] the same measures were 100 to 500 nM and ≤ 10 nM.
On the same counts, the results for `Cn1cc(-c2cc3c(N4CCN(C(=O)C5CC(F)C5)CC4)ccnc3[nH]2)cn1` (stereo not drawn) [Compound 93] are ≤ 100 nM and ≤ 10 nM.
On the same counts, the results for `Cn1cc(-c2[nH]c3nccc(N4CCN(C(=O)O[C@@H]5CCOC5)CC4)c3c2Cl)cn1` [Compound 332] are 100 to 500 nM and ≤ 10 nM.
Turning to `CC(C)(O)c1ccc(-c2cc3c(N4CCN(C(=O)C5CC5)CC4)ccnc3[nH]2)cc1` [Compound 195], the results for the IC50 in test [1] and in test [2] were ≤ 100 nM and ≤ 10 nM, respectively.
Turning to `CCOC(=O)N1CCN(c2ccnc3[nH]c(-c4ncc(CC)s4)cc23)CC1` [Compound 113], the IC50 in test [1] is ≤ 100 nM; in test [2] it was ≤ 10 nM.
On the same counts, the results for `COc1ccc(-c2cc3c(N4CCN(C(=O)[C@H]5CC[C@H](O)CC5)CC4)ccnc3[nH]2)cc1` [Compound 349] are ≤ 100 nM and ≤ 10 nM.
For `CCN1CCN(c2ccc(-c3cc4c(N5CCN(C(=O)C6CC6)CC5)ccnc4[nH]3)c(Cl)c2)CC1` [Compound 456] the same measures were ≤ 100 nM and ≤ 10 nM.
On the same counts, the results for `CCOC(=O)N1CCN(c2ccnc3[nH]c(-c4cnn(C(F)F)c4)c(C#N)c23)CC1` [Compound 258] are ≤ 100 nM and ≤ 10 nM.
Regarding `CCOC(=O)N1CCN(c2ccnc3[nH]c(-c4nc(C)c(C)s4)cc23)CC1` [Compound 114], the IC50 in test [1] was ≤ 100 nM; in test [2], ≤ 10 nM.
On the same counts, the results for `O=C(C1CC1)N1CCN(c2ccnc3[nH]c(-c4cnn(C5CCCC5)c4)cc23)CC1` [Compound 197] are ≤ 100 nM and ≤ 10 nM.
For `CCCOC(=O)N1CCN(c2ccnc3[nH]c(-c4cnn(C)c4)c(C#N)c23)CC1` [Compound 136] the same measures were ≤ 100 nM and ≤ 10 nM.
On the same counts, the results for `Cn1cc(-c2[nH]c3nccc(N4CCN(C(=O)O[C@@H]5CCC5(F)F)CC4)c3c2C#N)cn1` [Compound 366] are ≤ 100 nM and ≤ 10 nM.
With `CCOC(=O)N1CCN(c2ccnc3[nH]c(-c4cnn(C)c4)c(Br)c23)CC1` [Compound 341], the IC50 in test [1] was ≤ 100 nM; in test [2], ≤ 10 nM.
On the same counts, the results for `Cn1cc(-c2cc3c(N4CCN(C(=O)OCC5COC5)CC4)ccnc3[nH]2)cn1` [Compound 153] are 100 to 500 nM and ≤ 10 nM.
On the same counts, the results for `CCOC(=O)N1CCN(c2ccnc3[nH]c(-c4cn(C)nn4)cc23)CC1` [Compound 13] are 100 to 500 nM and ≤ 10 nM.
For `CC(C)n1cnc(-c2cc3c(N4CCN(C(=O)OC5COC5)CC4)ccnc3[nH]2)c1` [Compound 231] the same measures were ≤ 100 nM and ≤ 10 nM.
Take `Cc1nc(-c2cc3c(N4CCN(C(=O)O[C@@H](C)CF)CC4)ccnc3[nH]2)cs1` [Compound 189]: the IC50 in test [1] was ≤ 100 nM; in test [2], ≤ 10 nM.
For `CCCOC(=O)N1CCN(c2ccnc3[nH]c(-c4cnn(C)c4)cc23)CC1` [Compound 40] the same measures were 100 to 500 nM and ≤ 10 nM.
On the same counts, the results for `CCOC(=O)N1CCN(c2ccnc3[nH]c(-c4cnn(S(C)(=O)=O)c4)cc23)CC1` [Compound 281] are 100 to 500 nM and ≤ 10 nM.
Take `CC(C)c1ccc(-c2cc3c(N4CCN(C(=O)C5CC5)CC4)ccnc3[nH]2)cc1` [Compound 120]: the IC50 in test [1] was 100 to 500 nM; in test [2], ≤ 10 nM.
On the same counts, the results for `Cn1ncc(-c2cc3c(N4CCN(C(=O)OC5COC5)CC4)ccnc3[nH]2)c1C(F)F` [Compound 336] are 100 to 500 nM and ≤ 10 nM.
For `CCOC(=O)N1CCN(c2ccnc3[nH]c(-c4csc(C)n4)cc23)CC1` [Compound 46] the same measures were ≤ 100 nM and ≤ 10 nM.
For `Cn1cc(-c2cc3c(N4CCN(C(=O)OC5(C)COC5)CC4)ccnc3[nH]2)cn1` [Compound 152], the IC50 was 100 to 500 nM in test [1] and ≤ 10 nM in test [2].
On the same counts, the results for `CC(C)OC(=O)N1CCN(c2ccnc3[nH]c(-c4cnn(C)c4)c(C#N)c23)CC1` [Compound 137] are ≤ 100 nM and ≤ 10 nM.

These data come from patent publication US11236086B2, “Substituted pyrrolopyridines as inhibitors of activin receptor-like kinase” (BLUEPRINT MEDICINES CORPORATION, priority 2017, dated 2022).
